For orientation: IC50 means the concentration that inhibits the measured activity by half.

For 18 compounds, IC50 results are on record in US12410208B2, “(2-acetamidyl)thio-beta-D-galactopyranoside derivatives” (Idorsia Pharmaceuticals Ltd, priority 2020, dated 2025).

Read-outs that look alike come from different tables or passages of the source.

In experiment [1] the target is biotinylated human Gal-3 (hGal-3) (Homo sapiens, UniProt P17931). Nature of the experiment: Competitive binding assay: biotinylated hGal-3 binding to microplate-adsorbed asialofetuin (ASF), spectrophotometric. The essentials: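 Competitive binding of biotinylated hGal-3 to plate-adsorbed asialofetuin was measured with serially diluted compounds over 3 h at 4° C. Bound protein was detected with streptavidin-peroxidase and ABTS substrate by absorbance. IC50 values are means of several measurements.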

A further experiment concerns the target human Gal-1 (hGal-1) (Homo sapiens, UniProt P09382). Nature of the experiment: Competitive binding assay: biotinylated hGal-1 binding to microplate-adsorbed asialofetuin (ASF), spectrophotometric. The settings on record: hGal-1 binding to asialofetuin; Table 15; R and S epimers of selected Examples also listed; read-out: IC50 (Galectin-1 inhibition). The essentials:
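Biotinylated hGal-1 (300-1000 ng/mL) incubated with compound on asialofetuin-coated plates 3 hours at 4 °C, washed, then streptavidin-peroxidase (80 ng/mL) 1 hour at 4 °C. ABTS substrate read spectrophotometrically; IC50 reported as mean of several measurements.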

Setting [2] is: Gal-3 inhibition, Table 4, read-out: IC50.
Where [3] appears, read: Gal-3 inhibition, Table 5, read-out: IC50.
Where [4] appears, read: Table 6, hGal-3, read-out: IC50 (Gal-3 inhibition).
Setting [5] is: Table 10, hGal-3, read-out: IC50 (Gal-3 inhibition).
Setting [6] is: Table 12, hGal-3, read-out: IC50 (Gal-3 inhibition).

human Gal-1 (hGal-1), sequence (P09382 whole entry): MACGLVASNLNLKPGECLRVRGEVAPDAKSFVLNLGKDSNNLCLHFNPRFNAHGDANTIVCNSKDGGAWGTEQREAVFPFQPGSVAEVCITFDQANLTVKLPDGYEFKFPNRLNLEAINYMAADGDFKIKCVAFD
biotinylated human Gal-3 (hGal-3), sequence (P17931 whole entry): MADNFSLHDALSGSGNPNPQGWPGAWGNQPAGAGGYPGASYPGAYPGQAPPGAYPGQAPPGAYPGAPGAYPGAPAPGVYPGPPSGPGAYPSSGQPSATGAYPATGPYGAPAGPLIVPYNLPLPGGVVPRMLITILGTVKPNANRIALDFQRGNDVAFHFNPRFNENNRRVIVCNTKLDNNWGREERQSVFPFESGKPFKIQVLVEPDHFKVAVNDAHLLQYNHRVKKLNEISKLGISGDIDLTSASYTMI

With `CN(CC1CCOCC1)C(=O)C(S[C@@H]1O[C@H](CO)[C@H](O)[C@H](n2cc(-c3cc(F)c(F)c(F)c3)nn2)[C@H]1O)C1(O)CCOCC1` (stereo partly drawn) [Example 2.41.213., 2-(((2S,3R,4S,5R,6R)-3,5-dihydroxy-6-(hydroxymethyl)-4-(4-(3,4,5-trifluorophenyl)-1H-1,2,3-triazol-1-yl)tetrahydro-2H-pyran-2-yl)thio)-2-(4-hydroxytetrahydro-2H-pyran-4-yl)-N-methyl-N-((tetrahydro-2H-pyran-4-yl)methyl)acetamide], the IC50 in experiment [1] (setting [2]) turned out to be 80 nM; on human Gal-1 (hGal-1), 200 nM.
As to `O=C([C@@H](S[C@@H]1O[C@H](CO)[C@H](O)[C@H](n2cc(-c3cc(F)c(F)c(F)c3)nn2)[C@H]1O)C1(O)CCC1)N1CCC1` [Example 2.34.206S., (S)-1-(Azetidin-1-yl)-2-(((2S,3R,4S,5R,6R)-3,5-dihydroxy-6-(hydroxymethyl)-4-(4-(3,4,5-trifluorophenyl)-1H-1,2,3-triazol-1-yl)tetrahydro-2H-pyran-2-yl)thio)-2-(1-hydroxycyclobutyl)ethan-1-one], the IC50 worked out at 340 nM in experiment [1] (setting [3]) and 620 nM at human Gal-1 (hGal-1).
Take `CC1CCN1C(=O)C(S[C@@H]1O[C@H](CO)[C@H](O)[C@H](n2cc(-c3cc(F)c(F)c(F)c3)nn2)[C@H]1O)C1(O)CCOCC1` (stereo partly drawn) [Example 2.41.204., 2-(((2S,3R,4S,5R,6R)-3,5-Dihydroxy-6-(hydroxymethyl)-4-(4-(3,4,5-trifluorophenyl)-1H-1,2,3-triazol-1-yl)tetrahydro-2H-pyran-2-yl)thio)-2-(4-hydroxytetrahydro-2H-pyran-4-yl)-1-(2-methylazetidin-1-yl)ethan-1-one]: the IC50 in experiment [1] (setting [2]) is 210 nM; at human Gal-1 (hGal-1), 950 nM.
In the case of `CCN(CC)C(=O)C(S[C@@H]1O[C@H](CO)[C@H](O)[C@H](n2cc(-c3cc(F)c(F)c(F)c3)nn2)[C@H]1O)C(C)(C)O` (stereo partly drawn) [Example 2.31.202., 2-(((2S,3R,4S,5R,6R)-3,5-Dihydroxy-6-(hydroxymethyl)-4-(4-(3,4,5-trifluorophenyl)-1H-1,2,3-triazol-1-yl)tetrahydro-2H-pyran-2-yl)thio)-N,N-diethyl-3-hydroxy-3-methylbutanamide], the IC50 came out at 160 nM in experiment [1] (Gal-3 inhibition, Table 3, read-out: IC50) and 2770 nM at human Gal-1 (hGal-1).
As for `CN(CC(F)(F)F)C(=O)C(S[C@@H]1O[C@H](CO)[C@H](O)[C@H](n2cc(-c3cc(F)c(F)c(F)c3)nn2)[C@H]1O)C1(O)CCCC1` (stereo partly drawn) [Example 2.38.219., 2-(((2S,3R,4S,5R,6R)-3,5-Dihydroxy-6-(hydroxymethyl)-4-(4-(3,4,5-trifluorophenyl)-1H-1,2,3-triazol-1-yl)tetrahydro-2H-pyran-2-yl)thio)-2-(1-hydroxycyclopentyl)-N-methyl-N-(2,2,2-trifluoroethyl)acetamide], the values for the IC50 (in experiment [1] (setting [3]); at human Gal-1 (hGal-1)) were 40 nM and 110 nM, respectively.
Consider `CCN(CC)C(=O)C(S[C@@H]1O[C@H](CO)[C@H](O)[C@H](n2cc(-c3cc(F)c(F)c(F)c3)nn2)[C@H]1O)C1(O)CCOCC1` (stereo partly drawn) [Example 2.41.202., 2-(((2S,3R,4S,5R,6R)-3,5-Dihydroxy-6-(hydroxymethyl)-4-(4-(3,4,5-trifluorophenyl)-1H-1,2,3-triazol-1-yl)tetrahydro-2H-pyran-2-yl)thio)-N,N-diethyl-2-(4-hydroxytetrahydro-2H-pyran-4-yl)acetamide], for which the figures for the concentration for half-maximal inhibition (IC50) (in experiment [1] (setting [2]); on human Gal-1 (hGal-1)) were 50 nM and 110 nM, respectively.
As for `CC1CN(C(=O)[C@H](S[C@@H]2O[C@H](CO)[C@H](O)[C@H](n3cc(-c4cc(F)c(F)c(F)c4)nn3)[C@H]2O)C2(O)CCOCC2)C1` [Example 2.41.205R., (R)-2-(((2S,3R,4S,5R,6R)-3,5-Dihydroxy-6-(hydroxymethyl)-4-(4-(3,4,5-trifluorophenyl)-1H-1,2,3-triazol-1-yl)tetrahydro-2H-pyran-2-yl)thio)-2-(4-hydroxytetrahydro-2H-pyran-4-yl)-1-(3-methylazetidin-1-yl)ethan-1-one], the IC50 in experiment [1] (setting [2]) is 1000 nM; on human Gal-1 (hGal-1), 4900 nM.
For the compound `CC(C)(O)C(S[C@@H]1O[C@H](CO)[C@H](O)[C@H](n2cc(-c3cc(F)c(F)c(F)c3)nn2)[C@H]1O)C(=O)N1CCCCC1` (stereo partly drawn) [Example 2.31.208., 2-(((2S,3R,4S,5R,6R)-3,5-Dihydroxy-6-(hydroxymethyl)-4-(4-(3,4,5-trifluorophenyl)-1H-1,2,3-triazol-1-yl)tetrahydro-2H-pyran-2-yl)thio)-3-hydroxy-3-methyl-1-(piperidin-1-yl)butan-1-one], the IC50 stood at 70 nM in experiment [1] (setting [4]) and 30 nM on human Gal-1 (hGal-1).
For `CCN(C)C(=O)[C@@H](S[C@@H]1O[C@H](CO)[C@H](O)[C@H](n2cc(-c3cc(F)c(F)c(F)c3)nn2)[C@H]1O)C1(O)CCOCC1` [Example 2.41.203S., (S)-2-(((2S,3R,4S,5R,6R)-3,5-Dihydroxy-6-(hydroxymethyl)-4-(4-(3,4,5-trifluorophenyl)-1H-1,2,3-triazol-1-yl)tetrahydro-2H-pyran-2-yl)thio)-N-ethyl-2-(4-hydroxytetrahydro-2H-pyran-4-yl)-N-methylacetamide], the 50% inhibitory concentration (IC50) in experiment [1] (setting [3]) turned out to be 30 nM; on human Gal-1 (hGal-1) it was 67 nM.
Turning to `CN1CCC(O)(C(S[C@@H]2O[C@H](CO)[C@H](O)[C@H](n3cc(-c4cc(F)c(F)c(F)c4)nn3)[C@H]2O)C(=O)N2CCc3ccccc32)CC1` (stereo partly drawn) [Example 2.40.209., 2-(((2S,3R,4S,5R,6R)-3,5-Dihydroxy-6-(hydroxymethyl)-4-(4-(3,4,5-trifluorophenyl)-1H-1,2,3-triazol-1-yl)tetrahydro-2H-pyran-2-yl)thio)-2-(4-hydroxy-1-methylpiperidin-4-yl)-1-(indolin-1-yl)ethan-1-one], the values for the 50% inhibitory concentration (IC50) (in experiment [1] (setting [2]); at human Gal-1 (hGal-1)) were 120 nM and 230 nM, respectively.
As for `O=C([C@H](S[C@@H]1O[C@H](CO)[C@H](O)[C@H](n2cc(-c3cc(F)c(F)c(F)c3)nn2)[C@H]1O)C1(O)CCC1)N1CCC1` [Example 2.34.206R., (R)-1-(Azetidin-1-yl)-2-(((2S,3R,4S,5R,6R)-3,5-dihydroxy-6-(hydroxymethyl)-4-(4-(3,4,5-trifluorophenyl)-1H-1,2,3-triazol-1-yl)tetrahydro-2H-pyran-2-yl)thio)-2-(1-hydroxycyclobutyl)ethan-1-one], the IC50 in experiment [1] (setting [3]) is 1800 nM; on human Gal-1 (hGal-1), 6910 nM.
With `CCN(C)C(=O)C(S[C@@H]1O[C@H](CO)[C@H](O)[C@H](n2cc(-c3cc(F)c(F)c(Cl)c3)nn2)[C@H]1O)C1(O)CCOCC1` (stereo partly drawn) [Example 15.41.203., 2-(((2S,3R,4S,5R,6R)-4-(4-(3-Chloro-4,5-difluorophenyl)-1H-1,2,3-triazol-1-yl)-3,5-dihydroxy-6-(hydroxymethyl)tetrahydro-2H-pyran-2-yl)thio)-N-ethyl-2-(4-hydroxytetrahydro-2H-pyran-4-yl)-N-methylacetamide], the IC50 in experiment [1] (Table 11, hGal-3, read-out: IC50 (Gal-3 inhibition)) was 60 nM; at human Gal-1 (hGal-1), 80 nM.
In the case of `CCN(CC1CCOCC1)C(=O)C(S[C@@H]1O[C@H](CO)[C@H](O)[C@H](n2cc(-c3cc(F)c(F)c(F)c3)nn2)[C@H]1OC)C1(O)CCC(F)(F)CC1` (stereo partly drawn) [Example 2.44.214.I.], the 50% inhibitory concentration (IC50) came out at 30 nM in experiment [1] (setting [5]) and 20 nM at human Gal-1 (hGal-1).
Consider `CO[C@@H]1[C@@H](n2cc(-c3cc(F)c(F)c(F)c3)nn2)[C@@H](O)[C@@H](CO)O[C@H]1SC(C(=O)N(C)CC(F)(F)F)C1(O)CCC(F)(F)CC1` (stereo partly drawn) [Example 2.44.241.I., 2-(4,4-Difluoro-1-hydroxycyclohexyl)-2-(((2S,3R,4S,5R,6R)-5-hydroxy-6-(hydroxymethyl)-3-methoxy-4-(4-(3,4,5-trifluorophenyl)-1H-1,2,3-triazol-1-yl)tetrahydro-2H-pyran-2-yl)thio)-N-methyl-N-(2,2,2-trifluoroethyl)acetamide], for which the IC50 in experiment [1] (setting [6]) was 180 nM; on human Gal-1 (hGal-1), 650 nM.
Consider `CN(CC1CC1)C(=O)C(S[C@@H]1O[C@H](CO)[C@H](O)[C@H](n2cc(-c3cc(F)c(F)c(F)c3)nn2)[C@H]1O)C(C)(C)O` (stereo partly drawn) [Example 2.31.218., N-(Cyclopropylmethyl)-2-(((2S,3R,4S,5R,6R)-3,5-dihydroxy-6-(hydroxymethyl)-4-(4-(3,4,5-trifluorophenyl)-1H-1,2,3-triazol-1-yl)tetrahydro-2H-pyran-2-yl)thio)-3-hydroxy-N,3-dimethylbutanamide], for which the 50% inhibitory concentration (IC50) came out at 30 nM in experiment [1] (setting [4]) and 220 nM on human Gal-1 (hGal-1).
As to `CN(C(=O)C(S[C@@H]1O[C@H](CO)[C@H](O)[C@H](n2cc(-c3cc(F)c(F)c(F)c3)nn2)[C@H]1O)C1(O)CCOCC1)C1CCC1` (stereo partly drawn) [Example 2.41.220.], the IC50 in experiment [1] (setting [5]) was determined as 50 nM; at human Gal-1 (hGal-1), 30 nM.
Turning to `CO[C@@H]1[C@@H](n2cc(-c3cc(F)c(F)c(F)c3)nn2)[C@@H](O)[C@@H](CO)O[C@H]1SC(C(=O)N(C)C1COC1)C1(O)CCC(F)(F)CC1` (stereo partly drawn) [Example 2.44.243.I., 2-(4,4-Difluoro-1-hydroxycyclohexyl)-2-(((2S,3R,4S,5R,6R)-5-hydroxy-6-(hydroxymethyl)-3-methoxy-4-(4-(3,4,5-trifluorophenyl)-1H-1,2,3-triazol-1-yl)tetrahydro-2H-pyran-2-yl)thio)-N-methyl-N-(oxetan-3-yl)acetamide], the concentration for half-maximal inhibition (IC50) in experiment [1] (setting [6]) is 110 nM; on human Gal-1 (hGal-1), 170 nM.
`O=C(C(S[C@@H]1O[C@H](CO)[C@H](O)[C@H](n2cc(-c3cc(F)c(F)c(F)c3)nn2)[C@H]1O)C1(O)CCOCC1)N1CCCC1` (stereo partly drawn) [Example 2.41.211., 2-(((2S,3R,4S,5R,6R)-3,5-Dihydroxy-6-(hydroxymethyl)-4-(4-(3,4,5-trifluorophenyl)-1H-1,2,3-triazol-1-yl)tetrahydro-2H-pyran-2-yl)thio)-2-(4-hydroxytetrahydro-2H-pyran-4-yl)-1-(pyrrolidin-1-yl)ethan-1-one]: the results for the IC50 (in experiment [1] (setting [2]); on human Gal-1 (hGal-1)) were 130 nM and 330 nM, respectively.
